Data taken from patent publication US8883077B2, “Disinfecting, nonbleaching N-halamine for use with contact lens” (Auburn University, priority 2010, dated 2014).
In brackets after ≈: the same amount, converted by molar mass.

Columns and labels:
[1] = Solubility in water at 22° C.; type: physicochemical
From the text: Both of the N-chloramine compounds mentioned above are able to easily be synthesized using methods known to those of skill in the art. Aqueous solutions of the un-halogenated amine precursor for either compound may be simply exposed to a dilute aqueous solution of household bleach (e.g., sodium hypochlorite) or sodium chlorite or by bubbling in chlorine gas to form the N-chloramine. For example, compound 1 has been prepared by Worley, et al., by using chlorine gas to react with an aqueous alkaline solution of the precursor amine (see Tsao, et al., “Novel N-Halamine Disinfectant Compounds”, Biotechnol. Prog. 1991, 7, 60 or Worley, et al., U.S. Pat. No. 5,057,612). It can also be purchased commercially from the HaloSource Corporation in Bothell, Wash. The precursor 2,2,5,5-tetramethyl-4-imidazolidinone is able to be prepared according to the method outlined in Tsao, et al., “Novel N-Halamine Disinfectant Compounds”, Biotechnol. Prog. 1991, 7, 60 or Worley, et al., U.S. Pat. No. 5,057,612. Compound 2 is able to be prepared by reaction of commercial (Aldrich Chemical Company, Milwaukee, Wis.) 2,2,6,6-tetramethyl-4-piperidinol with dilute household bleach. […] Pure compounds 1 and 2 contain 20.1 and 18.5 percent by weight oxidative chlorine, respectively. Their solubilities in water at 22° C. are 1930 and 6815 mg/L, respectively. […]

[2] = Stability in aqueous solution and in Unisol 4 contact lens soak (iodometric/thiosulfate titration); type: physicochemical
Experimental: The stabilities of compound 1 in aqueous solution and in a contact lens soak formulation (Unisol 4 manufactured by Alcon Laboratories, Inc.) were determined at 22° C. by using the standard iodometric/thiosulfate titration procedure. In water buffered to pH 7.0 at 22° C., the compound at a starting concentration of 10 mg/L total chlorine lost less than 5% of its oxidative chlorine over a storage period of 50 days. In about 4 mL of Unisol 4 at a starting concentration of about 20 mg/L total chlorine in the presence of an ACUVUE 2 contact lens (manufactured by Johnson & Johnson Vision Care, Inc.) in a lens holder manufactured by Alcon Laboratories, Inc., the loss of oxidative chlorine over 60 days was about 21%. In contrast, in an analogous experiment with compound 2 in the Unisol 4, the loss was about 54% over just 30 days.

[3] = system: Staphylococcus aureus (ATCC 25923); test: Disinfection efficacy in aqueous solution (colony counts after thiosulfate quench); type: cell-based; conditions: 5 mg/L total chlorine (25 mg/L compound)
Experimental: The antimicrobial efficacy of compound 1 was evaluated against the pathogen Staphylococcus aureus (ATCC 25923) in aqueous solution at 22° C. and pH values of 4.5, 7.0, and 9.5. Solutions containing about 1×10^6 colony forming units (CFU) per mL final cell densities of bacteria were prepared and treated with compound 1 at a concentration of 5 mg/L total chlorine concentration (25 mg/L compound concentration). Aliquots were removed at predetermined contact times and quenched with sterile 0.02 N sodium thiosulfate to terminate disinfection action. Then serial dilutions were made into sterile saline solution, and 25 μL aliquots of each dilution were applied to the dried surface of a Petri dish containing tryptic soy agar. After 48 hours of incubation at 37° C., colony counts for each dilution were made. The results of three replicates were averaged. Control samples containing no disinfectant were handled in the same manner. Inactivation of the pathogen was considered to be at least 99.9999% (6 logs) when no viable colonies were detected in the thiosulfate-quenched aliquots.

| SMILES | solubility [1] [µg/mL] | loss of oxidative chlorine ([2]; about 4 mL Unisol 4 with ACUVUE 2 contact lens, starting about 20 mg/L total chlorine, 60 days) | loss of oxidative chlorine ([2]; water buffered to pH 7.0, 22° C., starting 10 mg/L total chlorine, storage 50 days) | contact time required for 99.9999% inactivation ([3]; pH 4.5, 22° C.) [min] | inactivation after 10 minutes contact ([3]; pH 4.5, 22° C., about 1×10^6 CFU/mL) [%] | contact time required for 99.9999% inactivation ([3]; pH 7.0, 22° C.) [min] | inactivation after 10 minutes contact time ([3]; pH 7.0, 22° C., about 1×10^6 CFU/mL) [%] | contact time required for 99.9999% inactivation ([3]; pH 9.5, 22° C.) [min] | inactivation after 10 minutes contact time ([3]; pH 9.5, 22° C., about 1×10^6 CFU/mL) [%] | loss of oxidative chlorine ([2]; Unisol 4 with ACUVUE 2 contact lens, analogous experiment, 30 days) |
| --- | --- | --- | --- | --- | --- | --- | --- | --- | --- | --- |
| CC1(C)NC(=O)C(C)(C)N1Cl [compound 1, 1-chloro-2,2,5,5-tetramethyl-4-imidazolidinone] | 1930 (≈ 10.9 mM) | about 21% | less than 5% | 60 | 96 | 588 | 4.4 | 454 | 50 |  |
| CC1(C)CC(O)CC(C)(C)N1Cl [compound 2, 1-chloro-2,2,6,6-tetramethyl-4-piperidinol, reference compound] | 6820 (≈ 35.5 mM) |  |  |  |  |  |  |  |  | about 54% |
